From patent US7008937B2, “Porphyrins and metalloporphyrins for inhibiting heme iron uptake” (Frontier Scientific, Inc., priority 2003, dated 2006)
Where two headings read alike, the source gives them in different places.

Experiments:
rat duodenum = settings: for inhibition of incorporation of radiolabeled heme into the animals: 4 animals (FIG. 8)
Description: In this assay, Wistar rats were first anesthetized with pentobarbital. Wistar rats are from a strain originally developed at the Wistar Institute and commonly used all over the world for research. Following anesthesia, a midline incision was made in each of the rats. The duodenum of each animal was isolated between the pylorus and the ligament of Trietz by umbilical tape. The bile duct of each animal was then identified and ligated. Following this, a syringe was passed through the pylorus of each animal, and one ml of radiolabeled heme solution was introduced into the duodenum. The heme solutions used contained either only heme, or additionally included an appropriate concentration of an inhibitor to be evaluated.
Following introduction of the heme or heme/inhibitor solution, the duodenal loop of each animal was tied off. Heme absorption was allowed to continue for a period of 10 minutes. Following this absorption period, the duodenal loop of each rat was removed and the animal was killed. The rat carcass was counted in a whole body counter to determine the amount of radiolabeled heme isotope absorbed into the body from the duodenum.
The Wistar rats were divided into three groups of 4 animals each. Group 1 was used as a control group.
In this experiment, 5 animals were utilized in each of the control and testing groups. The incubation time period was extended to be fifteen minutes. […] The points seen in FIG. 9 represent the measurements obtained individual rats, while the shaded bars represent the mean value for each group of animals.

K562 cells = system: K562 cells
Description: In a next set of experiments, K562 cells were used to test toxicity of the porphyrins of the invention. K562 cells are erythroleukemia cells from a cell line derived from a chronic myeloid leukemia patient in blast crisis. K562 cells were selected for this testing based on their ability to grow in suspension. This characteristic renders cell counting more reliable.

[1] = 50 micromolar in duodenal loop, 15 minutes
Protocol: Subsequently, cardiac punctures were performed on the rats, and between 0.45 and 1.3 ml of blood were collected from each. The plasma of the blood samples was separated and precipitated overnight with 10% trichloroacetic acid.

IEC-6 cells [2] = system: IEC-6 cells
IEC-6 cells [3] = experiment: Inhibition of in vitro uptake of radiolabeled iron from heme in IEC-6 cells
Protocol: In a first assay, confluent monolayers of IEC-6 cells were incubated with radioactive iron-labeled heme. […] In this assay, the heme had been previously solubilized in taurodeoxycholate micelles. Twelve-well tissue culture plates were used with 1 ml of phosphate-buffered saline (or “PBS”) containing Ca, Mg and glucose. Cells were incubated with the heme solution and a designated inhibitor for times indicated at a temperature of 37° C.
After incubation, the cells were washed with 1 ml of the same buffer at 4° C. three times. The cells were then solubilized by the addition of 1 ml of water and sonicated for 10 minutes in a Branson sonicator. The cells were removed by titration and transferred to 75 ml tubes. Subsequently, the radioactivity of the cells was determined using a gamma counter.
For an initial screen, each compound was added at a concentration of 800 micromolar, and given a timed uptake period of over 60 minutes. […] The concentration of inhibitor required to get a 50% decrease in heme uptake inhibition counts was then determined.

[4] = 800 μM
Protocol: TMP (free base porphyrin) was used at 160 and 800 μM concentrations in the taurodeoxycholate-solubilized heme solution.

[5] = one of two cell lines (summary)
[6] = read-out: concentration giving about 50% inhibition of heme iron uptake, titration with increasing amounts of inhibitor, uptake determined after 30 minutes

SMILES: C[n+]1ccc(-c2c3nc(c(-c4cc[n+](C)cc4)c4ccc([n-]4)c(-c4cc[n+](C)cc4)c4nc(c(-c5cc[n+](C)cc5)c5ccc2[n-]5)C=C4)C=C3)cc1.[Cr+3] [Cr-TMP, Cr (III) meso-tetra(N-methyl-4-pyridyl) porphine]
- inhibition of incorporation of radiolabeled heme into the animals (rat duodenum; 50 μM, 10 minutes): almost complete inhibition
- inhibition of incorporation of radiolabeled heme into the animals (rat duodenum; 200 μM, 10 minutes): almost complete inhibition
- in vivo inhibition of heme-iron uptake (conclusion) (rat duodenum; about 50 μM, 15 minutes (FIG. 9)): feasible in vivo
- growth rate of the cells (K562 cells; 50 micromolar in growth media (FIG. 10)): not decreased
- cell growth at higher concentrations (K562 cells; concentrations above 50 micromolar, growth slowed, cells remained viable): Some inhibition of cell growth
- toxicity at a high concentration relative to contemplated therapeutic dosage (K562 cells; [5]): no toxicity
- toxicity after prolonged exposure (K562 cells; two weeks of exposure): No toxicity
- absorption across the intestinal wall [1]: essentially no absorption
- plasma level, bounded by limit of sensitivity of the measurement [1]: < 40 nM
- difference in plasma absorbance between control and treated groups ([1]; 447 nm): no difference
- growth rate or extent (IEC-6 cells [2]; 50 μM, up to 7 days' exposure (FIG. 11)): no decrease in growth rate or extent
- concentration up to which no toxicity was observed (IEC-6 cells [2]; day 4 (FIG. 12)): about 100 μM
- toxicity at a high concentration relative to contemplated therapeutic dosage (IEC-6 cells [2]; [5]): no toxicity
- concentration range in which active as inhibitor (IEC-6 cells [3]): low micromolar range
- toxicity to the cell monolayer under the inverted microscope (IEC-6 cells [3]; 800 μM, 60 minutes): No toxicity to the cell monolayer was observed
- inhibition of heme iron uptake, timed uptake (IEC-6 cells [3]; 800 μM, over 60 minutes, 37 degrees (FIG. 3)): inhibition to approximately background
- inhibitory ability compared with the free base porphyrin (IEC-6 cells [3]; metal chelates of TMP): effective to still another order of magnitude
- IC50 (IEC-6 cells [3]; [6]): ~4 µM

SMILES: C[n+]1ccc(-c2c3nc(c(-c4cc[n+](C)cc4)c4ccc([nH]4)c(-c4cc[n+](C)cc4)c4nc(c(-c5cc[n+](C)cc5)c5ccc2[nH]5)C=C4)C=C3)cc1 [TMP, meso-tetra(N-methyl-4-pyridyl) porphine]
- variation of inhibition in the group of animals (rat duodenum; 800 μM, 10 minutes): considerable variation in inhibition
- inhibition of incorporation of iron from heme into the body of the animal (rat duodenum; 160 and 800 μM in heme solution, 10 minutes (FIG. 7)): inhibition of iron uptake was observed
- precipitation in the heme solution [4]: slight precipitate
- IC50 (IEC-6 cells [3]; read-out: concentration at which heme uptake is inhibited (as seen in FIGS. 2 and 4), summary of Tables 1 and 2): ~750 µM
- IC50 (IEC-6 cells [3]; [6]): ~100 µM
